In PMC7168207, “Dibasic Derivatives of Phenylcarbamic Acid as Prospective Antibacterial Agents Interacting with Cytoplasmic Membrane” (Antibiotics, 2020):
Several values for one entry are separate records, joined by “and”; a condition that tells them apart may be missing. Equal entries are not always repeated.

System: Candida albicans CCM 8261
Experiment: minimum fungistatic concentration, RPMI 1640
Assay type: cell-based
Conditions: CCM8261, CA = C albicans CCM 8261, 48 h
Method: Fungistatic activity was tested similarly in RPMI (Roswell Park Memorial Institute) 1640 medium (Sigma, Pool, UK). […] A growth control and sterility control were included. The colonies of C. albicans grown overnight on Sabourad dextrose agar were suspended in sterile phosphate-buffered saline (PBS) to get cell density 0.5 McFarland. The inoculum was diluted to get a final concentration of 10^3 CFU/mL in the wells. Plates were inoculated and cultivated at 37 °C for 48 h. The minimum fungistatic concentration was visually evaluated as the lowest concentration of a tested compound, which inhibited 100% of yeast growth. 5-Flucytosin (Sigma, UK) was used as a positive control.

**Q.** How did the MIC turn out when CCCCCOc1cccc(NC(=O)OC(CN(CCC)CCC)CN2CCCC2)c1.Cl.Cl (stereo not shown) [1f, 1-[3-(dipropylammonio)-2-({[3-(pentyloxy)phenyl]carbamoyl}-oxy)propyl]pyrrolidinium dichloride] was run?
**A.** The MIC was 128 µg/mL and 252 µM.
